Laboratory results taken from patent US9000034B2, “Antibiotic composition containing erythorbyl laurate and its usage” (SNU R&DB Foundation, priority 2012, dated 2015).

Experiments:
[1] = tested on: Salmonella typhimurium (ATCC 19586); assay: Test for bacterial proliferation inhibitory effects (absorbance at 600 nm); details: 37° C., 22 hours; FIG. 5
[2] = tested on: Escherichia coli O157:H7 (ATCC 35150); assay: as above; type: cell-based; details: 37° C., 22 hours; FIG. 5
Listeria monocytogenes = assay: as above; details: 37° C., 22 hours; FIG. 5
Staphylococcus aureus = assay: as above; type: cell-based
Description: Meanwhile, as a result of examination of proliferation inhibition data of Staphylococcus aureus, a portion where an exponential phase of the bacteria starts was remarkably shown unlike Listeria monocytogenes. Thus, the concentration of erythorbyl laurate was further decreased and a growth curve of the bacteria was measured.

[3] = tested on: Salmonella typhimurium (ATCC 19586); assay: Test for apoptotic effects (viable colony count on selective media); type: cell-based; details: compared with erythorbic acid and lauric acid; FIG. 4
Description: (§1) Apoptotic effects of erythorbic acid, lauric acid, and erythorbyl laurate, which is a […] product of erythorbic acid and lauric acid and a material of interest in this experiment, on two kinds of Gram-negative bacteria and two kinds of Gram-positive bacteria were evaluated.
(§2) As selective media for antibiosis test, sorbitol MacConkey agar (SMAC) (available from Difco), Xylose Lysine Desoxycholate agar (XLD) (available from Difco), Oxford agar base with Bacto™ Oxford antimicrobial supplement (MOX) (available from Difco), and Baird-Parker Agar Base (BPA) (available from Difco) were used.
(§3) As bacterial strains, Escherichia coli O157:H7 (ATCC 35150), Salmonella typhimurium (ATCC 19586), Listeria monocytogenes (ATCC 19114), and Staphylococcus aureus (ATCC 27213) were prepared. Each of the bacterial strains was cultured in tryptic soy broth (Difco, Becton Dickinson, Sparks, Md., USA) for 24 hours at 37° C., centrifuged at 4000×g for 20 minutes at 4° C., and purified with buffered peptone water (BPW) (available from Difco). Each strain was prepared in the form of a bacterial suspension (10^6 CFU/ml).
(§4) For this experiment, first, 10 ml of erythorbic acid, 10 ml of lauric acid, and 10 ml of erythorbyl laurate were added to 0.1 ml of each bacterial suspension. The resulting solution was satisfactorily mixed using a vortex mixer for minutes. Thereafter, 1 ml of the resultant solution obtained by mixing each bacterial suspension and test compounds was mixed with 9 ml of sterilized peptone water. Then, the resulting mixture was diluted 1:10 using sterilized peptone water. 0.1 ml of the diluted solution was collected and plated on the selective media. The plated media were incubated at 37° C. for 24 hours, and then colonies grown in each plate were measured in log10 CFU/ml.

[4] = tested on: Staphylococcus aureus (ATCC 27213); assay: as above; type: cell-based
Description: as §1, §2, §3, §4

[5] = tested on: Escherichia coli O157:H7 (ATCC 35150); assay: as above; type: cell-based; details: compared with erythorbic acid and lauric acid; FIG. 4
Description: as §1, §2, §3, §4

[6] = tested on: Listeria monocytogenes (ATCC 19114); assay: as above; type: cell-based
Description: as §1, §2, §3, §4

[7] = tested on: human intestinal epithelial cells INT-407; assay: Cytotoxicity test (MTT assay, cell viability); details: FIG. 7
[8] = tested on: human intestinal epithelial cells INT-407

SMILES	bacterial proliferation inhibitory effects [1]	bacterial proliferation inhibitory effects [2]	bacterial proliferation inhibitory effects (Listeria monocytogenes)	bacterial proliferation inhibitory effects (Staphylococcus aureus; 37° C., 22 hours, FIG. 5)	growth curve of the bacteria as the concentration decreased (Staphylococcus aureus; decreasing concentration of erythorbyl laurate, FIG. 6)	apoptotic effects [3]	apoptotic effects ([4]; FIG. 4)	apoptotic effects according to the concentration ([4]; at a concentration of 200 ppm or higher)	apoptotic effects [5]	apoptotic effects ([6]; FIG. 4)	viable cell count ([6]; above concentrations of 200 ppm)	apoptotic effects according to the concentration ([6]; up to 200 ppm)	cell viability compared with erythorbic acid ([7]; 50 μM and 200 μM)	cell viability compared with ascorbyl palmitate ([7]; all the concentrations)	cytotoxicity [8]
O=C1O[C@H]([C@H](O)CO)C(O)=C1O [erythorbic acid]	insignificant bacterial proliferation inhibitory effects	insignificant bacterial proliferation inhibitory effects	–	–	–	–	–	–	–	–	–	–	–	–	–
CCCCCCCCCCCC(=O)OC[C@@H](O)[C@H]1OC(=O)C(O)=C1O [erythorbyl laurate]	insignificant bacterial proliferation inhibitory effects	insignificant bacterial proliferation inhibitory effects	effective bacterial proliferation inhibitory effects	effective bacterial proliferation inhibitory effects	an induction phase decreased and the exponential phase was observed earlier	insignificant	excellent apoptotic effects	continuous apoptotic effects	insignificant	excellent apoptotic effects	0.48 CFU/ml	apoptotic effects were increased in proportion to increase in the concentration	cell viability similar to that when erythorbic acid was used	higher cell viability	no cytotoxicity
CCCCCCCCCCCC(=O)O [lauric acid]	insignificant bacterial proliferation inhibitory effects	insignificant bacterial proliferation inhibitory effects	–	–	–	–	–	–	–	–	–	–	–	–	–
